Data: patent publication US7553829B2, “Treatment of chronic fatigue syndrome and fibromyalgia syndrome” (Humanetics Corporation, priority 2000, dated 2009)

Tested on: chronic fatigue syndrome
Experiment: Experiment 1: oral treatment of a subject diagnosed with chronic fatigue syndrome
Type: in vivo, human
Conditions: one subject, CFS by CDC criteria; 100 mg capsules orally twice daily for two months
Description: One subject, recently diagnosed with chronic fatigue syndrome by CDC criteria, orally consumed 100 mg capsules of Δ5-androstene-3-acetyl-7,17-dione twice daily for two months. […] As testament to their improvement, they reported to their physician that they had just finished building a 20′×30′ addition to their bam, something, they said, they would not have and could not have done prior to taking Δ5-androstene-3-acetyl-7,17-dione.

## CC(=O)O[C@H]1CC[C@@]2(C)C(=CC(=O)[C@@H]3[C@@H]2CC[C@]2(C)C(=O)CC[C@@H]32)C1 [Δ5-androstene-3-acetyl-7,17-dione]
  improvement in their symptoms of fatigue (self-reported): 80%
  mental alertness (self-reported): felt more mentally alert
